According to patent US20240043427A1 (Gilead Sciences, Inc., priority 2020, published 2024):
Where “and” joins values, the source holds several entries; their conditions need not be identical. Equal values may be shown once. Read-outs that look alike come from different tables or passages of the source. Blank lines part the entries; values can stand above or below the compound they belong to.

Key:
CD73 [1] = biological target: T1, CD73 (Homo sapiens (Human), UniProt P21589); experiment: CD73 Biochemical IC50 Assay; conditions: CD73 0.3 nM, AMP 15 uM, 25 mM Tris pH 7.4, 5 mM MgCl2
Experimental: CD73 Biochemical IC50 Assay
Compound serial dilutions were pre-spotted into Thermo Nunc assay plate. 50 μL CD73 enzyme buffer (CD73 purchased from R&D system=0.6 nM, 25 mM Tris, pH 7.4, 5 mM MgCl2) was added into the assay plate and incubated for 15 mins. […] The samples were run using Rapid fire.

CD73 [2] = biological target: T1, CD73; format: biochemical; conditions: 1 mM NaH2PO4 in enzyme buffer, CD73 0.3 nM, AMP 15 uM
CD73 [3] = biological target: T1, CD73; experiment: MDA-MB-231 Cell Based CD73 Activity Assay; conditions: MDA-MB-231-GFP cells, RPMI medium with 10% human plasma, 200 uM AMP
Experimental: MDA-MB-231 Cell Based CD73 Activity Assay
MDA-MB-231-GFP cells were seeded in 384-well plates (Greiner 781946) at a density of 10000 cells per well in 50 μL of RPMI medium with 10% HP (human plasma). Cells were plated into assay plate with compounds pre-spotted, for an overnight compound treatment. 50 μL of 400 μM AMP (final concentration 200 μM) using a Bio-tek dispenser. Plates were incubated for 100 mins. […] The samples were run using Rapid fire.

T1 sequence (P21589 27-574): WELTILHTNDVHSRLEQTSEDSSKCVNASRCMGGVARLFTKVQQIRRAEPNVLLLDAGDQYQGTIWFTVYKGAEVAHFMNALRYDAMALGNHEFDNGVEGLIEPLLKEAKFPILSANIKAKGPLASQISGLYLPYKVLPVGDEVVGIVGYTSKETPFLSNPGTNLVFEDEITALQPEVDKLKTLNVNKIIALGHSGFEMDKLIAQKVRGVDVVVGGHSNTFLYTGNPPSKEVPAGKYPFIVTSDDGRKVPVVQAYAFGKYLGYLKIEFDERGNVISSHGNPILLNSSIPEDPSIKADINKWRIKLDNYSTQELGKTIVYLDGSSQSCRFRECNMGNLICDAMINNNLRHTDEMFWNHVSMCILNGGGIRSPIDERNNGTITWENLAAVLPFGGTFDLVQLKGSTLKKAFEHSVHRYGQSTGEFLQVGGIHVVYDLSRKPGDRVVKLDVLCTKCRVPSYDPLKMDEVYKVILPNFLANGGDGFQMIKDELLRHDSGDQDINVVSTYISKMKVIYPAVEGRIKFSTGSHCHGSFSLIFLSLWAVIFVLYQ

Structure (SMILES): O=c1[nH]cc(-c2cc([C@H]3C[C@@H]3c3ccc(C(F)(F)F)cc3)c3nccn3n2)c(=O)[nH]1 (racemic) [Example 42, 5-[8-[(1S,2S)-2-[4-(trifluoromethyl)phenyl]cyclopropyl]imidazo[1,2-b]pyridazin-6-yl]-1H-pyrimidine-2,4-dione and 5-[8-[(1R,2R)-2-[4-(trifluoromethyl)phenyl]cyclopropyl]imidazo[1,2-b]pyridazin-6-yl]-1H-pyrimidine-2,4-dione]
IC50 (CD73 [1]): 28.7 nM | IC50 (CD73 [2]): 2.08 nM | EC50 (CD73 [3]): 7.59 nM

Structure (SMILES): O=c1[nH]cc(-c2cc([C@H]3C[C@@H]3c3ccccn3)c3nccn3n2)c(=O)[nH]1 (racemic) [Example 52, 5-[8-[(1S,2S)-2-(2-pyridyl)cyclopropyl]imidazo[1,2-b]pyridazin-6-yl]-1H-pyrimidine-2,4-dione and 5-[8-[(1R,2R)-2-(2-pyridyl)cyclopropyl]imidazo[1,2-b]pyridazin-6-yl]-1H-pyrimidine-2,4-dione]
IC50 (CD73 [1]): 20.1 nM | IC50 (CD73 [2]): 1.14 nM | EC50 (CD73 [3]): 2.69 nM

Structure (SMILES): O=c1[nH]cc(-c2cc([C@H]3C[C@@H]3c3cccnc3)c3nccn3n2)c(=O)[nH]1 (racemic) [Example 53, 5-[8-[(1S,2S)-2-(3-pyridyl)cyclopropyl]imidazo[1,2-b]pyridazin-6-yl]-1H-pyrimidine-2,4-dione and 5-[8-[(1R,2R)-2-(3-pyridyl)cyclopropyl]imidazo[1,2-b]pyridazin-6-yl]-1H-pyrimidine-2,4-dione]
IC50 (CD73 [1]): 20.7 nM | IC50 (CD73 [2]): 1.52 nM | EC50 (CD73 [3]): 5.16 nM

Structure (SMILES): O=c1[nH]cc(-c2cc([C@H]3C[C@@H]3c3ccncc3)c3nccn3n2)c(=O)[nH]1 (racemic) [Example 54, 5-[8-[(1S,2S)-2-(4-pyridyl)cyclopropyl]imidazo[1,2-b]pyridazin-6-yl]-1H-pyrimidine-2,4-dione and 5-[8-[(1R,2R)-2-(4-pyridyl)cyclopropyl]imidazo[1,2-b]pyridazin-6-yl]-1H-pyrimidine-2,4-dione]
IC50 (CD73 [1]): 17.7 nM | IC50 (CD73 [2]): 1.98 nM | EC50 (CD73 [3]): 3.4 nM

Structure (SMILES): O=c1[nH]cc(-c2cc(CS(=O)(=O)c3ccccc3)c3nc(CS(=O)(=O)c4ccccc4)cn3n2)c(=O)[nH]1 [Example 21, 5-[2,8-bis(benzenesulfonylmethyl)imidazo[1,2-b]pyridazin-6-yl]-1H-pyrimidine-2,4-dione]
IC50 (CD73 [1]): > 2500 nM | EC50 (CD73 [3]): > 25000 nM

Structure (SMILES): O=c1[nH]cc(-c2ccc3nccn3n2)c(=O)[nH]1 [Example 23, 5-(imidazo[1,2-b]pyridazin-6-yl)pyrimidine-2,4(1H,3H)-dione]
IC50 (CD73 [1]): > 2500 nM | EC50 (CD73 [3]): > 25000 nM

Structure (SMILES): O=c1[nH]cc(-c2cc(OC3CC3)c3nccn3n2)c(=O)[nH]1 [Example 24, 5-(8-cyclopropoxyimidazo[1,2-b]pyridazin-6-yl)pyrimidine-2,4(1H,3H)-dione]
IC50 (CD73 [1]): 1260 nM | EC50 (CD73 [3]): 1230 nM

Structure (SMILES): CC(C)Oc1cc(-c2c[nH]c(=O)[nH]c2=O)nn2ccnc12 [Example 25, 5-(8-isopropoxyimidazo[1,2-b]pyridazin-6-yl)pyrimidine-2,4(1H,3H)-dione]
IC50 (CD73 [1]): 657 nM and 557 nM | EC50 (CD73 [3]): 361 nM and 429 nM

Structure (SMILES): O=c1[nH]cc(-c2cc(OCc3ccccc3)c3nccn3n2)c(=O)[nH]1 [Example 26]
IC50 (CD73 [1]): 161 nM | EC50 (CD73 [3]): 184 nM

Structure (SMILES): O=c1[nH]cc(-c2cc(C3CC3)n3nccc3n2)c(=O)[nH]1 [Example 27, 5-(7-cyclopropylpyrazolo[1,5-a]pyrimidin-5-yl)pyrimidine-2,4(1H,3H)-dione]
IC50 (CD73 [1]): 90.4 nM | EC50 (CD73 [3]): 145 nM

Structure (SMILES): Cc1nc2c(C3CCC(F)(F)CC3)cc(-c3c[nH]c(=O)[nH]c3=O)nn2n1 [Example 55, 5-(8-(4,4-difluorocyclohexyl)-2-methyl-[1,2,4]triazolo[1,5-b]pyridazin-6-yl)pyrimidine-2,4(1H,3H)-dione]
IC50 (CD73 [1]): > 2500 nM | EC50 (CD73 [3]): 872 nM

Structure (SMILES): N#Cc1cnc2c(C3CCC(F)(F)CC3)cc(-c3c[nH]c(=O)[nH]c3=O)nn12 [Example 56, 8-(4,4-difluorocyclohexyl)-6-(2,4-dioxo-1,2,3,4-tetrahydropyrimidin-5-yl)imidazo[1,2-b]pyridazine-3-carbonitrile]
IC50 (CD73 [1]): > 2500 nM | EC50 (CD73 [3]): 4460 nM

Structure (SMILES): Cc1cnc2c(C3CCC(F)(F)CC3)cc(-c3c[nH]c(=O)[nH]c3=O)nn12 [Example 57, 5-(8-(4,4-difluorocyclohexyl)-3-methylimidazo[1,2-b]pyridazin-6-yl)pyrimidine-2,4(1H,3H)-dione]
IC50 (CD73 [1]): > 2500 nM | EC50 (CD73 [3]): 3300 nM

Structure (SMILES): O=c1[nH]cc(-c2cc(COCc3ccccc3)c3nccn3n2)c(=O)[nH]1 [Example 58, 5-(8-((benzyloxy)methyl)imidazo[1,2-b]pyridazin-6-yl)pyrimidine-2,4(1H,3H)-dione]
IC50 (CD73 [1]): 548 nM | EC50 (CD73 [3]): 704 nM

Structure (SMILES): O=c1[nH]cc(-c2cc(N3CC(c4ccccc4)C3)c3nccn3n2)c(=O)[nH]1 [Example 59, 5-(8-(3-phenylazetidin-1-yl)imidazo[1,2-b]pyridazin-6-yl)pyrimidine-2,4(1H,3H)-dione]
IC50 (CD73 [1]): 65 nM | EC50 (CD73 [3]): 71.7 nM

Structure (SMILES): O=c1[nH]cc(-c2cc(N3CCC3c3ccccc3)c3nccn3n2)c(=O)[nH]1 (centres unmarked) [Example 66, 5-(8-(2-phenylazetidin-1-yl)imidazo[1,2-b]pyridazin-6-yl)pyrimidine-2,4(1H,3H)-dione]
IC50 (CD73 [1]): > 2500 nM | EC50 (CD73 [3]): 4470 nM

Structure (SMILES): O=c1[nH]cc(-c2cc(C3CC3)c3ncc(F)n3n2)c(=O)[nH]1 [Example 69, 5-(8-cyclopropyl-3-fluoro-imidazo[1,2-b]pyridazin-6-yl)-1H-pyrimidine-2,4-dione]
IC50 (CD73 [1]): 55.4 nM | EC50 (CD73 [3]): 47.8 nM

Structure (SMILES): O=c1[nH]cc(-c2cc(-c3ccc(NCC4CC4)cc3)c3nccn3n2)c(=O)[nH]1 [Example 71, 5-[8-[4-(cyclopropylmethylamino)phenyl]imidazo[1,2-b]pyridazin-6-yl]-1H-pyrimidine-2,4-dione]
IC50 (CD73 [1]): 1490 nM | EC50 (CD73 [3]): 649 nM

Structure (SMILES): O=c1[nH]cc(-c2cc(C3CC3)c3nc(C4CC4)cn3n2)c(=O)[nH]1 [Example 75, 5-(2,8-dicyclopropylimidazo[1,2-b]pyridazin-6-yl)-1H-pyrimidine-2,4-dione]
IC50 (CD73 [1]): 126 nM | EC50 (CD73 [3]): 136 nM

Structure (SMILES): O=c1[nH]cc(-c2cc(-n3cccn3)c3nccn3n2)c(=O)[nH]1 [Example 78, 5-(8-pyrazol-1-ylimidazo[1,2-b]pyridazin-6-yl)-1H-pyrimidine-2,4-dione]
IC50 (CD73 [1]): 1920 nM | EC50 (CD73 [3]): 1230 nM

Structure (SMILES): O=c1[nH]cc(-c2cc([C@H]3C[C@@H]3c3ccc(F)cc3F)c3ncc(F)n3n2)c(=O)[nH]1 [Example 88, 5-[8-[(1S,2S)-2-(2,4-difluorophenyl)cyclopropyl]-3-fluoro-imidazo[1,2-b]pyridazin-6-yl]-1H-pyrimidine-2,4-dione]
IC50 (CD73 [1]): 9.16 nM | EC50 (CD73 [3]): 2.93 nM

The remaining lines, values ahead:

IC50 (CD73 [1]): 211 nM | EC50 (CD73 [3]): 248 nM
Structure (SMILES): CC1(C)CCN(c2cc(-c3c[nH]c(=O)[nH]c3=O)nn3ccnc23)CC1 [Example 89, 5-[8-(4,4-dimethyl-1-piperidyl)imidazo[1,2-b]pyridazin-6-yl]-1H-pyrimidine-2,4-dione]

IC50 (CD73 [1]): 9.91 nM | EC50 (CD73 [3]): 1.79 nM
Structure (SMILES): O=c1[nH]cc(-c2cc([C@H]3C[C@@H]3c3ccc(F)c(F)c3)c3ncc(F)n3n2)c(=O)[nH]1 [Example 90, 5-[8-[(1S,2S)-2-(3,4-difluorophenyl)cyclopropyl]-3-fluoro-imidazo[1,2-b]pyridazin-6-yl]-1H-pyrimidine-2,4-dione]

IC50 (CD73 [1]): 104 nM | EC50 (CD73 [3]): 62.2 nM
Structure (SMILES): CC1(C)CCN(c2cc(-c3c[nH]c(=O)[nH]c3=O)nc3ccnn23)C1 [Example 91, 5-(7-(3,3-dimethylpyrrolidin-1-yl)pyrazolo[1,5-a]pyrimidin-5-yl)pyrimidine-2,4(1H,3H)-dione]

IC50 (CD73 [1]): 15.6 nM | IC50 (CD73 [2]): 6.57 nM | EC50 (CD73 [3]): 23.6 nM
Structure (SMILES): CC1(C)CCN(c2cc(-c3c[nH]c(=O)[nH]c3=O)nc3ncnn23)C1 [Example 92, 5-(7-(3,3-dimethylpyrrolidin-1-yl)-[1,2,4]triazolo[1,5-a]pyrimidin-5-yl)pyrimidine-2,4(1H,3H)-dione]

IC50 (CD73 [1]): 132 nM | EC50 (CD73 [3]): 76 nM
Structure (SMILES): O=c1[nH]cc(-c2cc(N3CC4CCC(C4)C3)c3nccn3n2)c(=O)[nH]1 [Example 94, 5-(8-(3-azabicyclo[3.2.1]octan-3-yl)imidazo[1,2-b]pyridazin-6-yl)pyrimidine-2,4(1H,3H)-dione]

IC50 (CD73 [1]): 773 nM | EC50 (CD73 [3]): 66.6 nM
Structure (SMILES): O=c1[nH]cc(-c2cc(C3CC3)c3nc(-c4ccccc4C(F)(F)F)cn3n2)c(=O)[nH]1 [Example 96, 5-(8-cyclopropyl-2-(2-(trifluoromethyl)phenyl)imidazo[1,2-b]pyridazin-6-yl)pyrimidine-2,4(1H,3H)-dione]

IC50 (CD73 [1]): > 2500 nM | EC50 (CD73 [3]): 2050 nM
Structure (SMILES): O=c1[nH]cc(-c2cc(C3CC3)c3nc(-c4ccncc4)cn3n2)c(=O)[nH]1 [Example 97, 5-(8-cyclopropyl-2-(pyridin-4-yl)imidazo[1,2-b]pyridazin-6-yl)pyrimidine-2,4(1H,3H)-dione]

IC50 (CD73 [1]): 473 nM | EC50 (CD73 [3]): 258 nM
Structure (SMILES): O=c1[nH]cc(-c2cc(C3CC3)c3nc(-c4cccnc4)cn3n2)c(=O)[nH]1 [Example 102, 5-(8-cyclopropyl-2-(pyridin-3-yl)imidazo[1,2-b]pyridazin-6-yl)pyrimidine-2,4(1H,3H)-dione]

IC50 (CD73 [1]): 70.8 nM | EC50 (CD73 [3]): 45.1 nM
Structure (SMILES): O=c1[nH]cc(-c2cc(C3CC3)c3nc(-c4ccccn4)cn3n2)c(=O)[nH]1 [Example 103, 5-(8-cyclopropyl-2-(pyridin-2-yl)imidazo[1,2-b]pyridazin-6-yl)pyrimidine-2,4(1H,3H)-dione]
